The subject of this assay is adenosine-uptake system. Nature of the assay: Inhibition of adenosine uptake in rabbit erythrocytes. It is filed as cell-based. The settings on record: Oryctolagus cuniculus, 0.25 h; rabbit erythrocyte preparation; concentration at which 50% of the adenosine originally employed is still present 15 min after addition; 30° C. The protocol:
2. Inhibition of Adenosine Uptake in Rabbit Erythrocytes by the Compounds According to the Invention.
The capability of substances to influence the adenosine-uptake system is investigated by determining the inhibitory effect of the substances on functional adenosine uptake. For the functional adenosine-uptake test, an erythrocyte preparation from rabbit blood is used. The blood is drawn intravenously using citrate (3 ml Monovette 9NC from Sarstedt) as anticoagulant. The blood is centrifuged at 3000 g for 5 min and the erythrocytes are suspended in 10 mM MOPS/0.9% NaCl solution pH 7.4. The suspension is diluted to one hundredth of the original blood volume. In each case 990 μl of the suspension are admixed with 10 μl of a suitable concentration of the substance to be investigated, and the mixture is incubated at 30° C. for 5 min. 5 μl of a 4 mM adenosine solution are then added, and the mixture is incubated at 30° C. for another 15 min. The samples are then centrifuged at 3000 g for 5 min and in each case […] of the supernatant are admixed with 28 μl of 70% strength HClO4, allowed to stand in an ice bath for 30 min and centrifuged at 16,000 g for 3 min, and 350 μl of the sample are neutralized using 30 μl of 5N NaOH. 50 μl of the sample are applied to a column (Waters Symmetry C18 […] 3.9×150 mm). A Spherisorb ODS II 5 μm 4.6×10 mm column is used as precolumn. The mobile phase used is a gradient of 50 mM KH2PO^4/5 mM tributylamine pH 7 (mobile phase A) and a mixture of mobile phase A/methanol 1/1 (mobile phase B). The gradient is from 10-40% B, at a flow rate of 0.5 ml/min. The adenosine which is present is quantified by its absorption at 260 nm, as are the hyoxanthine and inosine formed.

SMILES strings stand for the structures.

In US6984642B1, “Substituted phenylcyclohexane carboxylic acid amides and their use as adenosine uptake inhibitors” (Bayer Aktiengesellschaft, priority 1999, dated 2006) one finds IC50 data, which are given here for four compounds.

On to `NC(=O)[C@@H](NC(=O)[C@@H]1CCCC[C@H]1c1ccc(Cn2c(CN3CCOCC3)nc3cccnc32)cc1)c1ccccc1` [Example 3, (S)-N-{{(1R, 2R)-{4-{2-[2-(Morpholin-4-yl-methyl)-1H-pyrido[2,3-d]-imidazol-1-yl]methyl}-phenyl}-cyclohex-1-yl}carbonyl}-phenylglycinamide], for which half-maximal inhibition (IC50) was put at 15 nM.
In the case of `CC(C)N1CCN(c2nc3ccccc3n2Cc2ccc([C@@H]3CCCC[C@H]3C(=O)N[C@H](C(N)=O)c3ccccc3)cc2)CC1` [Example 8] it was 20 nM; in that of `NC(=O)[C@@H](NC(=O)[C@@H]1CCCC[C@H]1c1ccc(Cn2c(N3CCNCC3)nc3ccccc32)cc1)c1ccccc1` [Example 10], 25 nM.
Regarding `NC(=O)[C@@H](NC(=O)[C@@H]1CCCC[C@H]1c1ccc(Cn2c(COCCO)nc3cccnc32)cc1)c1ccccc1` [Example 16], the midpoint of inhibition, the IC50, lay at 10 nM.

The IC50 is the concentration needed to halve the response being measured. High values mean weaker potency in that assay, low ones greater potency in that assay.
